Laboratory results as given in ChEMBL document CHEMBL3885861, “Open TG-GATES”.

Species on record: Rattus norvegicus
Assay: Open TG-GATES - Regimen: Daily Repeat
Type: toxicity, organism-based, Sprague-Dawley
Design: regimen Daily Repeat, gender Male, age 6 weeks
Conditions: in vivo, po, 10 mg/kg, route gavage, dose level Middle; for APTT / Bas / Eos / Fbg / Hb / Ht / Lym / MCH / MCHC / MCV / Mono / Neu / PT / Plat / RBC / Ret / WBC: tissue Blood; for KIDNEY_L / KIDNEY_R / KIDNEY_TOTAL: tissue Kidney; for LIVER: tissue Liver; for A/G / ALP / ALT / AST / BUN / CRE / Ca / Cl / DBIL / GLC / IP / K / LDH / Na / PL / RALB / TBIL / TC / TG / TP / gamma-GTP: tissue Plasma

## Cn1cnc([N+](=O)[O-])c1Sc1ncnc2nc[nH]c12 [AZATHIOPRINE]
72 h, time 3 day
  TERMINAL_BW: 204.1 g
  APTT: 20.4 s
  Bas: 0%
  Eos: 0.8%
  Fbg: 324.8 mg/dL
  Hb: 13.4 g/dL
  Ht: 39.3%
  Lym: 83.6%
  MCH: 21.4 pg
  MCHC: 33.9%
  MCV: 62.9 fL
  Mono: 2%
  Neu: 12.4%
  PT: 15.7 s
  Plat: 125.8 x10_4/uL
  RBC: 625.6 x10_4/ul
  Ret: 5.2%
  WBC: 72.4 x10_2/uL
  KIDNEY_L: 0.9 g
  KIDNEY_R: 0.9 g
  KIDNEY_TOTAL: 1.9 g
  LIVER: 9.8 g
  A/G: 1.2
  ALP: 1704 IU/L
  ALT: 41.4 IU/L
  AST: 73 IU/L
  BUN: 16.2 mg/dL
  CRE: 0.1 mg/dL
  Ca: 11.2 mg/dL
  Cl: 106.2 meq/L
  DBIL: 0 mg/dL
  GLC: 184.8 mg/dL
  IP: 7.2 mg/dL
  K: 4.2 meq/L
  LDH: 196.8 IU/L
  Na: 143 meq/L
  PL: 148.2 mg/dL
  RALB: 3.1 g/dL
  TBIL: 0.014 mg/dL
  TC: 77.4 mg/dL
  TG: 85.2 mg/dL
  TP: 5.7 g/dL
  gamma-GTP: 1 IU/L
[…], time 7 day
  TERMINAL_BW: 234.4 g
  APTT: 22.4 s
  Bas: 0%
  Eos: 1%
  Fbg: 325.8 mg/dL
  Hb: 13.7 g/dL
  Ht: 39%
  Lym: 83%
  MCH: 21.5 pg
  MCHC: 35.1%
  MCV: 61.5 fL
  Mono: 2.4%
  Neu: 12.4%
  PT: 15.4 s
  Plat: 143.7 x10_4/uL
  RBC: 635 x10_4/ul
  Ret: 6.2%
  WBC: 81.7 x10_2/uL
  KIDNEY_L: 1 g
  KIDNEY_R: 1 g
  KIDNEY_TOTAL: 2 g
  LIVER: 11.1 g
  A/G: 1.1
  ALP: 1444.2 IU/L
  ALT: 37.8 IU/L
  AST: 69.8 IU/L
  BUN: 18.2 mg/dL
  CRE: 0.1 mg/dL
  Ca: 10.7 mg/dL
  Cl: 105.8 meq/L
  DBIL: 0 mg/dL
  GLC: 193.2 mg/dL
  IP: 6.8 mg/dL
  K: 4.2 meq/L
  LDH: 265.2 IU/L
  Na: 142.8 meq/L
  PL: 166.4 mg/dL
  RALB: 3.1 g/dL
  TBIL: 0 mg/dL
  TC: 89.4 mg/dL
  TG: 104.6 mg/dL
  TP: 6 g/dL
  gamma-GTP: 1 IU/L
[…], time 14 day
  TERMINAL_BW: 294.1 g
  APTT: 21.7 s
  Bas: 0%
  Eos: 0.6%
  Fbg: 333 mg/dL
  Hb: 14 g/dL
  Ht: 40.1%
  Lym: 81.4%
  MCH: 21.1 pg
  MCHC: 35%
  MCV: 60.3 fL
  Mono: 1.6%
  Neu: 14.8%
  PT: 15.6 s
  Plat: 116.8 x10_4/uL
  RBC: 664.6 x10_4/ul
  Ret: 4.2%
  WBC: 93.4 x10_2/uL
  KIDNEY_L: 1.1 g
  KIDNEY_R: 1.2 g
  KIDNEY_TOTAL: 2.3 g
  LIVER: 13.4 g
  A/G: 1.1
  ALP: 1327.6 IU/L
  ALT: 33.4 IU/L
  AST: 62.8 IU/L
  BUN: 17.8 mg/dL
  CRE: 0.2 mg/dL
  Ca: 11.3 mg/dL
  Cl: 105.2 meq/L
  DBIL: 0 mg/dL
  GLC: 200.2 mg/dL
  IP: 6.8 mg/dL
  K: 4 meq/L
  LDH: 161 IU/L
  Na: 143 meq/L
  PL: 174.4 mg/dL
  RALB: 3.2 g/dL
  TBIL: 0.006 mg/dL
  TC: 93.8 mg/dL
  TG: 93.4 mg/dL
  TP: 6.2 g/dL
  gamma-GTP: 1.8 IU/L
[…], time 28 day
  TERMINAL_BW: 329.3 g
  APTT: 22.4 s
  Bas: 0%
  Eos: 1.4%
  Fbg: 347.6 mg/dL
  Hb: 11.8 g/dL
  Ht: 34.5%
  Lym: 74%
  MCH: 19.3 pg
  MCHC: 33.9%
  MCV: 56.9 fL
  Mono: 3.2%
  Neu: 19.4%
  PT: 16.5 s
  Plat: 95.9 x10_4/uL
  RBC: 615.2 x10_4/ul
  Ret: 2.4%
  WBC: 54.1 x10_2/uL
  KIDNEY_L: 1.3 g
  KIDNEY_R: 1.3 g
  KIDNEY_TOTAL: 2.6 g
  LIVER: 13.3 g
  A/G: 1.1
  ALP: 971.6 IU/L
  ALT: 82 IU/L
  AST: 182.8 IU/L
  BUN: 20.8 mg/dL
  CRE: 0.2 mg/dL
  Ca: 10.7 mg/dL
  Cl: 107 meq/L
  DBIL: 0.034 mg/dL
  GLC: 169.4 mg/dL
  IP: 6.3 mg/dL
  K: 3.9 meq/L
  LDH: 602 IU/L
  Na: 141.4 meq/L
  PL: 169.6 mg/dL
  RALB: 3.3 g/dL
  TBIL: 0.066 mg/dL
  TC: 102 mg/dL
  TG: 63.4 mg/dL
  TP: 6.4 g/dL
  gamma-GTP: 1.2 IU/L
